Active and inactive are the calls of the source. No cut-off for these calls is given here.
Legend:
Leishmania donovani [1] = assay: Inhibition of Leishmania donovani HOM/IN/80/DD8 in hamster at 50 mg/kg, ip after 7 days; format: functional; conditions: for inhibition in vivo at 50 mg/kg: HOM/IN/80/DD8, ip, 168 h, route intraperitoneal
Leishmania donovani [2] = assay: Inhibition of Leishmania donovani HOM/IN/80/DD8 in hamster at 50 mg/kg, po after 28 days; format: functional; conditions: HOM/IN/80/DD8, 672 h
Leishmania donovani [3] = assay: Inhibition of Leishmania donovani HOM/IN/80/DD8 in hamster at 50 mg/kg, ip after 28 days; format: functional; conditions: HOM/IN/80/DD8, ip, 672 h, route intraperitoneal
Leishmania donovani [4] = assay: Inhibition of Leishmania donovani HOM/IN/80/DD8 in hamster at 50 mg/kg, po after 7 days; format: functional; conditions: HOM/IN/80/DD8, 168 h
Leishmania donovani [5] = assay: Inhibition of Leishmania donovani HOM/IN/80/DD8 in hamster at 12.5 mg/kg, po after 7 days; format: functional; conditions: HOM/IN/80/DD8, 168 h
Leishmania donovani [6] = assay: Inhibition of Leishmania donovani HOM/IN/80/DD8 in hamster at 12.5 mg/kg, po after 28 days; format: functional; conditions: HOM/IN/80/DD8, 672 h
Hamster = assay: Toxicity in hamster at 50 mg/kg; format: organism-based; design: dose 50 mg/kg; conditions: cricetinae, in vivo

With COc1ccc(N/C(=C\C(=O)/C=C/C2=C(C)CCCC2(C)C)SC)cc1 the inhibition in vivo at 50 mg/kg (Leishmania donovani [1]) was 52%.

CS/C(=C/C(=O)/C=C/C1=C(C)CCCC1(C)C)Nc1ccc(F)cc1 was tested, and the inhibition in vivo at 50 mg/kg (Leishmania donovani [1]) was 31%.

Molecule CS/C(=C/C(=O)/C=C/C1=C(C)CCCC1(C)C)NC1CCCCC1 has an inhibition in vivo at 50 mg/kg (Leishmania donovani [1]) of 46%.

In the case of CC1=C(/C=C/C(=O)C=C(N2CCOCC2)N2CCOCC2)C(C)(C)CCC1, the Activity (Leishmania donovani [1]) is reported as “inactive”.

In the case of CC1=C(/C=C/C(=O)C=C2NCCN2)C(C)(C)CCC1, the inhibition in vivo at 50 mg/kg (Leishmania donovani [2]) is reported as 71%, the inhibition in vivo at 50 mg/kg (Leishmania donovani [3]) is reported as 65% and the inhibition in vivo at 50 mg/kg (Leishmania donovani [1]) is reported as 30%. It also gave an inhibition in vivo at 50 mg/kg (Leishmania donovani [4]) of 40%.

In the case of CCCCCCCCCCCCCCCCOP(=O)([O-])OCC[N+](C)(C)C [MILTEFOSINE], the inhibition in vivo at 12.5 mg/kg (Leishmania donovani [5]) is reported as 94% and the inhibition in vivo at 12.5 mg/kg (Leishmania donovani [6]) is reported as 69%.

In the case of CS/C(=C/C(=O)/C=C/C1=C(C)CCCC1(C)C)Nc1ccccc1, the Activity (Leishmania donovani [1]) is reported as “inactive”.

CS/C(=C/C(=O)/C=C/C1=C(C)CCCC1(C)C)Nc1cccc(F)c1 gave an inhibition in vivo at 50 mg/kg (Leishmania donovani [1]) of 53%.

CCN(/C(=C\C(=O)/C=C/C1=C(C)CCCC1(C)C)SC)c1ccccc1 was tested, and the Activity (Leishmania donovani [1]) was “inactive”.

CC1=C(/C=C/C(=O)C=C(N2CCNCC2)N2CCNCC2)C(C)(C)CCC1 was tested, and the Activity (Hamster) was “Toxic”.

For CS/C(=C/C(=O)/C=C/C1=C(C)CCCC1(C)C)Nc1ccc(Cl)cc1, the inhibition in vivo at 50 mg/kg (Leishmania donovani [1]) was 18%.

Reference: ChEMBL document CHEMBL1144578, “Chemotherapy of leishmaniasis Part VI: synthesis and bioevaluation of some novel terpenyl S,N- and N,N-acetals” (Eur J Med Chem, 2007)
